Test results as given in patent US20090181963A1, “3H-[1,2,3]TRIAZOLO[4,5-D]PYRIMIDINE COMPOUNDS, THEIR USE AS mTOR KINASE AND PI3 KINASE INHIBITORS, AND THEIR [sequence]” (Wyeth, priority 2008, published 2009).

Columns and labels:
PI3 Kinase α = PI3 Kinase α (Homo sapiens, UniProt P42336); assay: Fluorescence polarization assay for PI3K (PI3 Kinase α); format: biochemical; details: diC8-PI(4,5)P2 substrate, 25 μM ATP, one hour at 25° C.
PI3 Kinase γ = PI3 Kinase γ (Homo sapiens, UniProt P48736); assay: Fluorescence polarization assay for PI3K (PI3 Kinase γ); format: biochemical; details: diC8-PI(4,5)P2 substrate, 25 μM ATP, one hour at 25° C.
PI3 Kinase γ, sequence (P48736 whole entry): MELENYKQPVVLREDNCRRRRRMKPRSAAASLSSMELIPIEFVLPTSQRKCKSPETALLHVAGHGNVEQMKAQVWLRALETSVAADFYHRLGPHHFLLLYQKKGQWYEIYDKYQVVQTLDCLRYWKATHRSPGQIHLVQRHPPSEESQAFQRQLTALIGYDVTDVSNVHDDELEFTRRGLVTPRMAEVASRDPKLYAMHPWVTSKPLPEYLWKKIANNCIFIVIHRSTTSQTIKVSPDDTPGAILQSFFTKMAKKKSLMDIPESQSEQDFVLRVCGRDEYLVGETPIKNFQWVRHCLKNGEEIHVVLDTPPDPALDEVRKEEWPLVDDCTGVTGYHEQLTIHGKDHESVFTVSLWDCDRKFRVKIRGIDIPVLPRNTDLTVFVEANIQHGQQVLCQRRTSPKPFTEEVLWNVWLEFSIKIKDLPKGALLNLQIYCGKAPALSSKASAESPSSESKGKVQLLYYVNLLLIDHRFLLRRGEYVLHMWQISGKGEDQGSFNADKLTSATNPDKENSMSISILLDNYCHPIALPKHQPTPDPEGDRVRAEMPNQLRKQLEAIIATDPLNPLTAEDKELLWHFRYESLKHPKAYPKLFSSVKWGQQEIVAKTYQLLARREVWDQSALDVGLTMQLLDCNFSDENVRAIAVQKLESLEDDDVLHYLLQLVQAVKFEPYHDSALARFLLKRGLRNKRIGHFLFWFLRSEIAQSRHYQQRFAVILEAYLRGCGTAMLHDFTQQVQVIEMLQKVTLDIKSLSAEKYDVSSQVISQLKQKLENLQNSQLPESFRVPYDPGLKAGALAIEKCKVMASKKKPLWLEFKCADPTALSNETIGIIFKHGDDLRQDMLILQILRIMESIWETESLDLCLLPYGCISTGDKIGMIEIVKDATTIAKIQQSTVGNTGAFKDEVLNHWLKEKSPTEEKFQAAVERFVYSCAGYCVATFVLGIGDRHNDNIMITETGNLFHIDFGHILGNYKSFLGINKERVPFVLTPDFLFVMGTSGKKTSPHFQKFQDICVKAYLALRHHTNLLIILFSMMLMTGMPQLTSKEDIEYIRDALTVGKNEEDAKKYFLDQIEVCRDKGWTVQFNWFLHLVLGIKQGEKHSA
Experimental: Nunc 384 well black polypropylene fluorescent plates were used for PI3K assays. Reactions were quenched by the addition of EDTA to a final concentration of 10 μM. Final reaction volumes were 10 ml. […] Reactions were allowed to proceed for one hour at 25° C. After I hour, GST-tagged GRP1 (general receptor for phosphoinositides) PH domain fusion protein was added to a final concentration of 100 nM, and BODIPY-TMRI(1,3,4,5)P4 (Echelon) was also added to a final concentration of 5 nM. Final sample volumes were 25 μl with a final DMSO concentration of 0.8%. Assay Plates were read on PerkinElmer Envision plate readers with appropriate filters for Tamra [BODIPY-TMRI(1,3,4,5)P4]. Data obtained were used to calculate enzymatic activity and enzyme inhibition by inhibitor compounds.

PI3 Kinase α, sequence (P42336 whole entry): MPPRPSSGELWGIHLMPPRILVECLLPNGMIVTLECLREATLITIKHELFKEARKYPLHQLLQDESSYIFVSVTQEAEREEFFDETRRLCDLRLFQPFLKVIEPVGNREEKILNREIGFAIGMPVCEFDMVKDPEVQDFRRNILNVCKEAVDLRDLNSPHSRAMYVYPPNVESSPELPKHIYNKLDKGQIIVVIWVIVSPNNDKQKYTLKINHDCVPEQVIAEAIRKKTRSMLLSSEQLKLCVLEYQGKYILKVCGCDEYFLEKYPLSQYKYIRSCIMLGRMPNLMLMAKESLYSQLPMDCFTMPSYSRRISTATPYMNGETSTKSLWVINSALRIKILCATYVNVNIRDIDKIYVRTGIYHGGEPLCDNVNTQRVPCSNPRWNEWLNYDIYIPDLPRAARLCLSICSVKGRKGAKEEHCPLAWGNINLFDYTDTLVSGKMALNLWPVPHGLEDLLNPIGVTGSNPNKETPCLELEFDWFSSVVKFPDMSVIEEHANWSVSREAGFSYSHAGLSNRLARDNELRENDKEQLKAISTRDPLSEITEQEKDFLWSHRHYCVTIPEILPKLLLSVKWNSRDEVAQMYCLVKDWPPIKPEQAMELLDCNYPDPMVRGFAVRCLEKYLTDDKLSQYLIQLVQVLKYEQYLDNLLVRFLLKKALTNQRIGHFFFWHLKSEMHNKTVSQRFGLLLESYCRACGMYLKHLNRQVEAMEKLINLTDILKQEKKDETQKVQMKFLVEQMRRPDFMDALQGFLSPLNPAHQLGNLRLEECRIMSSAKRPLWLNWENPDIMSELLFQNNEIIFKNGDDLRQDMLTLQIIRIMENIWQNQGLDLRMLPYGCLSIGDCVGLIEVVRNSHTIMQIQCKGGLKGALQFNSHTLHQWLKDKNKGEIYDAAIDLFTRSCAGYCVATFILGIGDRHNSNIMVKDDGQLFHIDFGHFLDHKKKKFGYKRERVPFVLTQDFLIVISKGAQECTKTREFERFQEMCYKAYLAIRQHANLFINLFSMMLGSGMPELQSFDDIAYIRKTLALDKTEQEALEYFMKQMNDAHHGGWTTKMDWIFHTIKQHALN
PI3 Kinase α, sequence (P27986 whole entry partner): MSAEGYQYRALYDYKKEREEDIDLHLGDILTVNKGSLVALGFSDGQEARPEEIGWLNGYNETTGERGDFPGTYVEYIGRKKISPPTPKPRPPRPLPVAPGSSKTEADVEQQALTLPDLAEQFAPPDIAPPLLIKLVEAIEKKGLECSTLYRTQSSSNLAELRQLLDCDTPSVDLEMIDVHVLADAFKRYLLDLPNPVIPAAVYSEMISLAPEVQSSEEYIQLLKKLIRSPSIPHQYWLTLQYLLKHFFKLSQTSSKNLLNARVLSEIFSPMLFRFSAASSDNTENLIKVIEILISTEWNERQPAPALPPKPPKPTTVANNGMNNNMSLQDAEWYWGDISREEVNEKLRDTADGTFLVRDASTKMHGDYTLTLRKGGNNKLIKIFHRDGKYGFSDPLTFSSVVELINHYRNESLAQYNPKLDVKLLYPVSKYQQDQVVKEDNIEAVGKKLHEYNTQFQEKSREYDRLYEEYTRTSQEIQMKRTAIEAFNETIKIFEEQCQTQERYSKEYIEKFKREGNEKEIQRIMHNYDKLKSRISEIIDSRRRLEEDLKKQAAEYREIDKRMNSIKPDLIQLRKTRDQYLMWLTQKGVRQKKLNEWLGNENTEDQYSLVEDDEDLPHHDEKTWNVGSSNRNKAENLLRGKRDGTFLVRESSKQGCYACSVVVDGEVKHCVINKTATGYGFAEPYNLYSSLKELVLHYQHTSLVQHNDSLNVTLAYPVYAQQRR

| Compound | IC50 (PI3 Kinase α) | IC50 (PI3 Kinase γ) |
| --- | --- | --- |
| CCn1nnc2c(N3CCOC[C@@H]3C)nc(-c3ccc(NC(=O)Nc4ccc(CCO)cc4)cc3)nc21 [Example 68, (S)-1-(4-(3-ethyl-7-(3-methylmorpholino)-3H-[1,2,3]triazolo[4,5-d]pyrimidin-5-yl)phenyl)-3-(4-(2-hydroxyethyl)phenyl)urea] | 9 nM | 70.3 nM |
| CCn1nnc2c(N3CCOCC3)nc(-c3ccc(NC(=O)Nc4ccc(C(=O)OC)cc4)cc3)nc21 [Example 41, methyl 4-({[4-(3-ethyl-7-morpholin-4-yl-3H-[1,2,3]triazolo[4,5-d]pyrimidin-5-yl)phenyl]carbamoyl}amino)benzoate] | 23.3 nM | 84.5 nM |
| CN(C)CCNC(=O)Nc1ccc(-c2nc(N3CCOCC3)c3nnn(C4CCN(Cc5ccc(F)nc5)CC4)c3n2)cc1 [Example 157, 1-(2-(dimethylamino)ethyl)-3-(4-(3-(1-((6-fluoropyridin-3-yl)methyl)piperidin-4-yl)-7-morpholino-3H-[1,2,3]triazolo[4,5-d]pyrimidin-5-yl)phenyl)urea] | 61 nM | 144 nM |
| O=C(Nc1ccc(-c2nc(N3CCOCC3)c3nnn(C4CC4)c3n2)cc1)Nc1cccnc1 [Example 79, 1-(4-(3-cyclopropyl-7-morpholino-3H-[1,2,3]triazolo[4,5-d]pyrimidin-5-yl)phenyl)-3-(pyridin-3-yl)urea] | 7 nM | 34 nM |
| CCn1nnc2c(N3CCOCC3)nc(-c3ccc(NC(=O)Nc4ccc(C(=O)N5CCN(c6ccccn6)CC5)cc4)cc3)nc21 [Example 58, 1-[4-(3-ethyl-7-morpholin-4-yl-3H-[1,2,3]triazolo[4,5-d]pyrimidin-5-yl)phenyl]-3-{4-[(4-pyridin-2-ylpiperazin-1-yl)carbonyl]phenyl}urea] | 2.5 nM | 14 nM |
| Oc1cccc(-c2nc(N3CCOCC3)c3nnn(CCN4CCN(Cc5ccc[nH]5)CC4)c3n2)c1 [Example 112, 3-(7-morpholin-4-yl-3-{2-[4-(1H-pyrrol-2-ylmethyl)piperazin-1-yl]ethyl}-3H-[1,2,3]triazolo[4,5-d]pyrimidin-5-yl)phenol] | 154 nM | 1020 nM |
| CC(C)n1nnc2c(N3CCOCC3)nc(-c3ccc(NC(=O)Nc4ccc(C(N)=O)cc4)cc3)nc21 [Example 93, 4-{3-[4-(3-isopropyl-7-morpholin-4-yl-3H-[1,2,3]triazolo[4,5-d]pyrimidin-5-yl)-phenyl]-ureido}-benzamide] | 2.5 nM | 18 nM |
| CCNC(=O)c1ccc(NC(=O)Nc2ccc(-c3nc(N4CCOCC4)c4nnn(CC)c4n3)cc2)cc1 [Example 64, N-ethyl-4-({[4-(3-ethyl-7-morpholin-4-yl-3H-[1,2,3]triazolo[4,5-d]pyrimidin-5-yl)phenyl]carbamoyl}amino)benzamide] | 3.3 nM | 15.5 nM |
| Cn1cncc1CN1CCC(n2nnc3c(N4CCOCC4)nc(-c4cncc(O)c4)nc32)CC1 [Example 24, 5-(3-{1-[(1-methyl-1H-imidazol-5-yl)methyl]piperidin-4-yl}-7-morpholin-4-yl-3H-[1,2,3]triazolo[4,5-d]pyrimidin-5-yl)pyridin-3-ol] | 86 nM | 219 nM |
| CC(=O)NCCn1nnc2c(N3CCOCC3)nc(-c3cccc(CO)c3)nc21 [Example 8, N-(2-{5-[3-(hydroxymethyl)phenyl]-7-morpholin-4-yl-3H-[1,2,3]triazolo[4,5-d]pyrimidin-3-yl}ethyl)acetamide] | 86 nM | 196 nM |
| OCc1cccc(-c2nc(N3CCOCC3)c3nnn(-c4cccc(CO)c4)c3n2)c1 [Example 117, [(7-morpholin-4-yl-3H-[1,2,3]triazolo[4,5-d]pyrimidine-3,5-diyl)di-3,1-phenylene]dimethanol] | 38.3 nM | 144 nM |
| CCn1nnc2c(N3CCOCC3)nc(-c3ccc(NC(=O)Nc4ccc(C(=O)NCCO)cc4)cc3)nc21 [Example 46, 4-({[4-(3-ethyl-7-morpholin-4-yl-3H-[1,2,3]triazolo[4,5-d]pyrimidin-5-yl)phenyl]carbamoyl}amino)-N-(2-hydroxyethyl)benzamide] | 2.8 nM | 14.5 nM |
| CCn1nnc2c(N3CCOC[C@@H]3C)nc(-c3ccc(NC(=O)Nc4ccc(N5CCN(C)CC5)cc4)cc3)nc21 [Example 76, (S)-1-(4-(3-ethyl-7-(3-methylmorpholino)-3H-[1,2,3]triazolo[4,5-d]pyrimidin-5-yl)phenyl)-3-(4-(4-methylpiperazin-1-yl)phenyl)urea] | 5 nM | 32 nM |
| CN(C)CCNC(=O)Nc1ccc(-c2nc(N3CCOCC3)c3nnn(C4CCN(Cc5ccc(Br)nc5)CC4)c3n2)cc1 [Example 155, 1-(4-(3-(1-((6-bromopyridin-3-yl)methyl)piperidin-4-yl)-7-morpholino-3H-[1,2,3]triazolo[4,5-d]pyrimidin-5-yl)phenyl)-3-(2-(dimethylamino)ethyl)urea] | 48 nM | 176 nM |
| CCn1nnc2c(N3CCOCC3)nc(-c3ccc(NC(=O)NC4CCN(C(=O)OCc5ccccc5)CC4)cc3)nc21 [Example 65, benzyl 4-({[4-(3-ethyl-7-morpholin-4-yl-3H-[1,2,3]triazolo[4,5-d]pyrimidin-5-yl)phenyl]carbamoyl}amino)piperidine-1-carboxylate] | 5630 nM | 1800 nM |
| CCCCN1CCN(CCn2nnc3c(N4CCOCC4)nc(-c4cccc(O)c4)nc32)CC1 [Example 107, 3-{3-[2-(4-butylpiperazin-1-yl)ethyl]-7-morpholin-4-yl-3H-[1,2,3]triazolo[4,5-d]pyrimidin-5-yl}phenol] | 1040 nM | 2490 nM |
| O=C(Nc1ccncc1)Nc1ccc(-c2nc(N3CCOCC3)c3nnn(C4CCNCC4)c3n2)cc1 [Example 167, 1-[4-(7-morpholin-4-yl-3-piperidin-4-yl-3H-[1,2,3]triazolo[4,5-d]pyrimidin-5-yl)phenyl]-3-pyridin-4-ylurea] | 9 nM | 91.5 nM |
| O=C(Nc1ccc(-c2nc(N3CCOCC3)c3nnn(CC(F)(F)F)c3n2)cc1)Nc1cccnc1 [Example 135, 1-{4-[7-morpholin-4-yl-3-(2,2,2-trifluoroethyl)-3H-[1,2,3]triazolo[4,5-d]pyrimidin-5-yl]phenyl}-3-pyridin-3-ylurea] | 9.5 nM | 30 nM |

The remaining lines, values ahead:

| IC50 (PI3 Kinase α) | IC50 (PI3 Kinase γ) | Compound |
| --- | --- | --- |
| 4 nM | 27 nM | COC(Cn1nnc2c(N3CCOCC3)nc(-c3ccc(NC(=O)Nc4ccc(C(N)=O)cc4)cc3)nc21)OC [Example 182, 4-[({4-[3-(2,2-dimethoxyethyl)-7-morpholin-4-yl-3H-[1,2,3]triazolo[4,5-d]pyrimidin-5-yl]phenyl}carbamoyl)amino]benzamide] |
| > 10000 nM | > 10000 nM | COC(=O)NC(=O)Nc1ccc(-c2nc(N3CCOCC3)c3nnn(C4CCN(C(=O)OC(C)(C)C)CC4)c3n2)cc1 [Example 169, tert-butyl 4-[5-(4-{[(methoxycarbonyl)carbamoyl]amino}phenyl)-7-morpholin-4-yl-3H-[1,2,3]triazolo[4,5-d]pyrimidin-3-yl]piperidine-1-carboxylate] |
| 142 nM | 342 nM | COC(Cn1nnc2c(N3CCOCC3)nc(-c3ccc(NC(=O)Nc4ccc(C)cc4)cc3)nc21)OC [Example 179, 1-{4-[3-(2,2-dimethoxyethyl)-7-morpholin-4-yl-3H-[1,2,3]triazolo[4,5-d]pyrimidin-5-yl]phenyl}-3-(4-methylphenyl)urea] |
| 43 nM | 135 nM | O=C(NCCc1c[nH]c2ccccc12)c1ccc(Cn2nnc3c(N4CCOCC4)nc(-c4cccc(O)c4)nc32)cc1 [Example 225, 4-{[5-(3-hydroxyphenyl)-7-morpholin-4-yl-3H-[1,2,3]triazolo[4,5-d]pyrimidin-3-yl]methyl}-N-[2-(1H-indol-3-yl)ethyl]benzamide] |
| 285 nM | 956 nM | OCc1cncc(-c2nc(N3CCOCC3)c3nnn(C4CCNCC4)c3n2)c1 [Example 174, [5-(7-morpholin-4-yl-3-piperidin-4-yl-3H-[1,2,3]triazolo[4,5-d]pyrimidin-5-yl)pyridin-3-yl]methanol] |
| 289 nM | 2730 nM | O=C(NCCCN1CCCC1)c1ccc(Cn2nnc3c(N4CCOCC4)nc(-c4cccc(O)c4)nc32)cc1 [Example 211, 4-{[5-(3-hydroxyphenyl)-7-morpholin-4-yl-3H-[1,2,3]triazolo[4,5-d]pyrimidin-3-yl]methyl}-N-(3-pyrrolidin-1-ylpropyl)benzamide] |
| 245 nM | 2070 nM | O=C(Cn1nnc2c(N3CCOCC3)nc(-c3cccc(CO)c3)nc21)Nc1ccc(F)cc1 [Example 238, N-(4-fluorophenyl)-2-{5-[3-(hydroxymethyl)phenyl]-7-morpholin-4-yl-3H-[1,2,3]triazolo[4,5-d]pyrimidin-3-yl}acetamide] |
| 10 nM | 43 nM | O=C(Nc1ccncc1)Nc1ccc(-c2nc(N3CCOCC3)c3nnn(C4CCOCC4)c3n2)cc1 [Example 198, 1-{4-[7-morpholin-4-yl-3-(tetrahydro-2H-pyran-4-yl)-3H-[1,2,3]triazolo[4,5-d]pyrimidin-5-yl]phenyl}-3-pyridin-4-ylurea] |
| 200 nM | 3240 nM | CNC(=O)Nc1ccc(-c2nc(N3CCOCC3)c3nnn(C4CCN(C(=O)OC(C)(C)C)CC4)c3n2)cc1 [Example 168, tert-butyl 4-(5-{4-[(methylcarbamoyl)amino]phenyl}-7-morpholin-4-yl-3H-[1,2,3]triazolo[4,5-d]pyrimidin-3-yl)piperidine-1-carboxylate] |
| 342 nM | 2640 nM | CNC(=O)c1ccc(Cn2nnc3c(N4CCOCC4)nc(-c4cccc(O)c4)nc32)cc1 [Example 207, 4-{[5-(3-hydroxyphenyl)-7-morpholin-4-yl-3H-[1,2,3]triazolo[4,5-d]pyrimidin-3-yl]methyl}-N-methylbenzamide] |
| 132 nM | 108 nM | NCCCCn1nnc2c(N3CCOCC3)nc(-c3cccc(O)c3)nc21 [Example 204, 3-[3-(4-Aminobutyl)-7-morpholin-4-yl-3H-[1,2,3]triazolo[4,5-d]pyrimidin-5-yl]phenol] |
